Assay results reported in US9249145B2, “Heterocyclic derivatives of pyrazol-4-yl-pyrrolo[2,3-d]pyrimidines as janus kinase inhibitors” (Incyte Holdings Corporation, priority 2009, dated 2016).
Structures can show the parent of a compound that is named as a salt. Where two headings read alike, the source gives them in different places.

Experiments:
[1] = molecular target: T1, human JAK1 (a.a. 837-1142) (Homo sapiens, UniProt P23458); experiment: In vitro JAK kinase assay (HTRF, phosphorylation of biotinylated peptide), JAK1; assay type: biochemical; conditions: 1 mM ATP, read-out: JAK1 IC50 (nM) @ 1 mM ATP
T1 construct: The catalytic domains of human JAK1 (a.a. 837-1142); His tag (N); made in house; host or cells: insect cells (baculovirus)
T1 sequence (P23458 849-1154): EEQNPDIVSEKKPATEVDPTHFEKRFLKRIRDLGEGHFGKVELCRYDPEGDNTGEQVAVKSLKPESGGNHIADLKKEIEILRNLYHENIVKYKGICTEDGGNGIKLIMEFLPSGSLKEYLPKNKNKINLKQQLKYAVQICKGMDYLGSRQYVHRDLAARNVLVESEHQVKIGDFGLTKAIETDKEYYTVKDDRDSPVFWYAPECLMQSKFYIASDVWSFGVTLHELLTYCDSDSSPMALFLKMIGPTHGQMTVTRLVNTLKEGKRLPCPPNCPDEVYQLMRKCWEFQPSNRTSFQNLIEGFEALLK
Procedure, shortened: (§1)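 IC50 from HTRF detection (Eu-Py20 antibody, SA-APC, 40 min) after EDTA quench. Reactions ran 1 h at room temperature with 500 nM biotinylated peptide in Tris pH 7.8 buffer with NaCl, DTT, BSA; ATP 90 μM for JAK1, 30 μM for JAK2 (Km), or 1 mM. Enzymes: His-tagged catalytic domains from insect cells.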

Jak2 (a.a. 828-1132) = molecular target: T2, Jak2 (a.a. 828-1132) (Homo sapiens, UniProt O60674); experiment: In vitro JAK kinase assay (HTRF, phosphorylation of biotinylated peptide), JAK2; assay type: biochemical; conditions: 1 mM ATP, read-out: JAK2 IC50 (nM) @ 1 mM ATP
T2 construct: Jak2 (a.a. 828-1132); His tag (N); made in house; host or cells: insect cells (baculovirus)
T2 sequence (O60674 828-1132): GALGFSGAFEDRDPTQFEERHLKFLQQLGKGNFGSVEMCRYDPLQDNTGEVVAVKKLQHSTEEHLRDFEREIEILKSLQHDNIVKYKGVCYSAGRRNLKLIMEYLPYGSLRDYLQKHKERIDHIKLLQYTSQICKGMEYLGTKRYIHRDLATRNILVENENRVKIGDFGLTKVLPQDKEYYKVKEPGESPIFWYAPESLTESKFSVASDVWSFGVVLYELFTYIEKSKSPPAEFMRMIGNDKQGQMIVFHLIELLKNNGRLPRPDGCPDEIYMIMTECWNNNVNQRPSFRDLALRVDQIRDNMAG
Procedure, shortened: as §1

Compound	IC50 ([1]; Examples 12-91)	IC50 (Jak2 (a.a. 828-1132); Examples 12-91)	IC50 ([1]; Examples 92-162)	IC50 (Jak2 (a.a. 828-1132); Examples 92-162)
N#CCC(CN1CCN(S(=O)(=O)c2ccc(Cl)s2)CC1)n1cc(-c2ncnc3[nH]ccc23)cn1 (stereo not drawn) [Example 68, 3-(4-(7H-pyrrolo[2,3-d]pyrimidin-4-yl)-1H-pyrazol-1-yl)-4-(4-(5-chlorothiophen-2-ylsulfonyl)piperazin-1-yl)butanenitrile]	< 10 nM	< 10 nM		
N#CCC(CN1CCN(C(=O)Nc2c(F)cccc2F)CC1)n1cc(-c2ncnc3[nH]ccc23)cn1 (stereo not drawn) [Example 69, 4-(2-(4-(7H-pyrrolo[2,3-d]pyrimidin-4-yl)-1H-pyrazol-1-yl)-3-cyanopropyl)-N-(2,6-difluorophenyl)piperazine-1-carboxamide]	< 10 nM	10 to 50 nM		
N#CCC(CN1CCN(C(=O)Nc2c(Cl)cccc2Cl)CC1)n1cc(-c2ncnc3[nH]ccc23)cn1 (stereo not drawn) [Example 70, 4-(2-(4-(7H-pyrrolo[2,3-d]pyrimidin-4-yl)-1H-pyrazol-1-yl)-3-cyanopropyl)-N-(2,6-dichlorophenyl)piperazine-1-carboxamide]	10 to 50 nM	50 to 100 nM		
Cc1cccc(Cl)c1NC(=O)N1CCN(CC(CC#N)n2cc(-c3ncnc4[nH]ccc34)cn2)CC1 (stereo not drawn) [Example 71, 4-(2-(4-(7H-pyrrolo[2,3-d]pyrimidin-4-yl)-1H-pyrazol-1-yl)-3-cyanopropyl)-N-(2-chloro-6-methylphenyl)piperazine-1-carboxamide]	10 to 50 nM	10 to 50 nM		
N#CCC(CN1CCN(C(=O)Nc2ccc(F)cc2F)CC1)n1cc(-c2ncnc3[nH]ccc23)cn1 (stereo not drawn) [Example 72, 4-(2-(4-(7H-pyrrolo[2,3-d]pyrimidin-4-yl)-1H-pyrazol-1-yl)-3-cyanopropyl)-N-(2,4-difluorophenyl)piperazine-1-carboxamide]	10 to 50 nM	50 to 100 nM		
N#CCC(CN1CCN(C(=O)Nc2cccc(C(F)(F)F)c2F)CC1)n1cc(-c2ncnc3[nH]ccc23)cn1 (stereo not drawn) [Example 73, 4-(2-(4-(7H-pyrrolo[2,3-d]pyrimidin-4-yl)-1H-pyrazol-1-yl)-3-cyanopropyl)-N-(2-fluoro-3-(trifluoromethyl)phenyl)piperazine-1-carboxamide]	10 to 50 nM	> 100 nM		
N#CCC(CN1CCN(C(=O)Nc2ccccc2OC(F)F)CC1)n1cc(-c2ncnc3[nH]ccc23)cn1 (stereo not drawn) [Example 74, 4-(2-(4-(7H-pyrrolo[2,3-d]pyrimidin-4-yl)-1H-pyrazol-1-yl)-3-cyanopropyl)-N-(2-(difluoromethoxy)phenyl)piperazine-1-carboxamide]	10 to 50 nM	50 to 100 nM		
N#CCC(CN1CCN(C(=O)Nc2ccccc2OC(F)(F)F)CC1)n1cc(-c2ncnc3[nH]ccc23)cn1 (stereo not drawn) [Example 75]	10 to 50 nM	50 to 100 nM		
N#CCC(CN1CCN(C(=O)Nc2ccccc2C(F)(F)F)CC1)n1cc(-c2ncnc3[nH]ccc23)cn1 (stereo not drawn) [Example 76, 4-(2-(4-(7H-pyrrolo[2,3-d]pyrimidin-4-yl)-1H-pyrazol-1-yl)-3-cyanopropyl)-N-(2-(trifluoromethyl)phenyl)piperazine-1-carboxamide]	10 to 50 nM	> 100 nM		
N#CCC(CN1CCN(C(=O)c2ccc(C(F)(F)F)cc2F)CC1)n1ccc(-c2ncnc3[nH]ccc23)c1 (stereo not drawn) [Example 78, 3-(3-(7H-pyrrolo[2,3-d]pyrimidin-4-yl)-1H-pyrrol-1-yl)-4-(4-(2-fluoro-4-(trifluoromethyl)benzoyl)piperazin-1-yl)butanenitrile]	< 10 nM	10 to 50 nM		
N#CCC(CN1CCN(C(=O)c2c(F)cc(C#N)cc2F)CC1)n1ccc(-c2ncnc3[nH]ccc23)c1 (stereo not drawn) [Example 79, 4-(4-(2-(3-(7H-pyrrolo[2,3-d]pyrimidin-4-yl)-1H-pyrrol-1-yl)-3-cyanopropyl)piperazine-1-carbonyl)-3,5-difluorobenzonitrile trifluoroacetate salt]	< 10 nM	50 to 100 nM		
N#CCC(CN1CCN(C(=O)c2ncc(F)cc2F)CC1)n1ccc(-c2ncnc3[nH]ccc23)c1 (stereo not drawn) [Example 80, 3-(3-(7H-pyrrolo[2,3-d]pyrimidin-4-yl)-1H-pyrrol-1-yl)-4-(4-(3,5-difluoropicolinoyl)piperazin-1-yl)butanenitrile]	< 10 nM	10 to 50 nM		
N#CCC(CN1CCN(C(=O)c2cc(F)cc(F)c2)CC1)n1ccc(-c2ncnc3[nH]ccc23)c1 (stereo not drawn) [Example 81, 3-(3-(7H-pyrrolo[2,3-d]pyrimidin-4-yl)-1H-pyrrol-1-yl)-4-(4-(3,5-difluorobenzoyl)piperazin-1-yl)butanenitrile]	< 10 nM	50 to 100 nM		
COc1ccc(C(=O)N2CCN(CC(CC#N)n3ccc(-c4ncnc5[nH]ccc45)c3)CC2)cc1F (stereo not drawn) [Example 82, 3-(3-(7H-pyrrolo[2,3-d]pyrimidin-4-yl)-1H-pyrrol-1-yl)-4-(4-(3-fluoro-4-methoxybenzoyl)piperazin-1-yl)butanenitrile]	< 10 nM	10 to 50 nM		
N#CCC(CN1CCN(C(=O)c2ccc(F)cn2)CC1)n1ccc(-c2ncnc3[nH]ccc23)c1 (stereo not drawn) [Example 83, 3-(3-(7H-pyrrolo[2,3-d]pyrimidin-4-yl)-1H-pyrrol-1-yl)-4-(4-(5-fluoropicolinoyl)piperazin-1-yl)butanenitrile]	< 10 nM	10 to 50 nM		
N#CCC(CN1CCN(C(=O)c2ncc(Cl)cc2F)CC1)n1ccc(-c2ncnc3[nH]ccc23)c1 (stereo not drawn) [Example 84, 3-(3-(7H-pyrrolo[2,3-d]pyrimidin-4-yl)-1H-pyrrol-1-yl)-4-(4-(5-chloro-3-fluoropicolinoyl)piperazin-1-yl)butanenitrile]	10 to 50 nM	10 to 50 nM		
N#CCC(CN1CCN(C(=O)c2ccc(F)c(OC(F)(F)F)c2)CC1)n1ccc(-c2ncnc3[nH]ccc23)c1 (stereo not drawn) [Example 85, 3-(3-(7H-pyrrolo[2,3-d]pyrimidin-4-yl)-1H-pyrrol-1-yl)-4-(4-(4-fluoro-3-(trifluoromethoxy)benzoyl)piperazin-1-yl)butanenitrile]	10 to 50 nM	> 100 nM		
N#CCC(CN1CCN(C(=O)c2cc(F)cc(C#N)c2)CC1)n1ccc(-c2ncnc3[nH]ccc23)c1 (stereo not drawn) [Example 86, 3-(4-(2-(3-(7H-pyrrolo[2,3-d]pyrimidin-4-yl)-1H-pyrrol-1-yl)-3-cyanopropyl)piperazine-1-carbonyl)-5-fluorobenzonitrile trifluoroacetate salt]	10 to 50 nM	> 100 nM		
N#CCC(CN1CCN(C(=O)c2ncc(C#N)cc2F)CC1)n1ccc(-c2ncnc3[nH]ccc23)c1 (stereo not drawn) [Example 87, 6-(4-(2-(3-(7H-pyrrolo[2,3-d]pyrimidin-4-yl)-1H-pyrrol-1-yl)-3-cyanopropyl)piperazine-1-carbonyl)-5-fluoronicotinonitrile]	10 to 50 nM	> 100 nM		
N#CCC(CN1CCN(C(=O)c2ccc(C#N)cc2)CC1)n1ccc(-c2ncnc3[nH]ccc23)c1 (stereo not drawn) [Example 88, 4-(4-(2-(3-(7H-pyrrolo[2,3-d]pyrimidin-4-yl)-1H-pyrrol-1-yl)-3-cyanopropyl)piperazine-1-carbonyl)benzonitrile]	10 to 50 nM	> 100 nM		
N#CCC(CN1CCN(C(=O)c2ncc(C(F)(F)F)cc2F)CC1)n1ccc(-c2ncnc3[nH]ccc23)c1 (stereo not drawn) [Example 89, 3-(3-(7H-pyrrolo[2,3-d]pyrimidin-4-yl)-1H-pyrrol-1-yl)-4-(4-(3-fluoro-5-(trifluoromethyl)picolinoyl)piperazin-1-yl)butanenitrile]	10 to 50 nM	> 100 nM		
N#CCC(CN1CCN(C(=O)c2ccc(F)cc2F)CC1)n1ccc(-c2ncnc3[nH]ccc23)c1 (stereo not drawn) [Example 90, 3-(3-(7H-pyrrolo[2,3-d]pyrimidin-4-yl)-1H-pyrrol-1-yl)-4-(4-(2,4-difluorobenzoyl)piperazin-1-yl)butanenitrile]	< 10 nM	< 10 nM		
N#CCC(CN1CCN(C(=O)c2ccc(C(F)F)cc2F)CC1)n1ccc(-c2ncnc3[nH]ccc23)c1 (stereo not drawn) [Example 91, 3-(3-(7H-pyrrolo[2,3-d]pyrimidin-4-yl)-1H-pyrrol-1-yl)-4-(4-(4-(difluoromethyl)-2-fluorobenzoyl)piperazin-1-yl)butanenitrile]	< 10 nM	10 to 50 nM		
Cc1cc(S(=O)(=O)N2CCN(CC(C)n3cc(-c4ncnc5[nH]ccc45)cn3)CC2)c(C(F)(F)F)o1 (stereo not drawn) [Example 92, 4-{1-[1-methyl-2-(4-{[5-methyl-2-(trifluoromethyl)-3-furyl]sulfonyl}piperazin-1-yl)ethyl]-1H-pyrazol-4-yl}-7H-pyrrolo[2,3-d]pyrimidine]			20 to 50 nM	> 100 nM
CC(CN1CCN(S(=O)(=O)c2ccc(Cl)s2)CC1)n1cc(-c2ncnc3[nH]ccc23)cn1 (stereo not drawn) [Example 93, 4-[1-(2-{4-[(5-chloro-2-thienyl)sulfonyl]piperazin-1-yl}-1-methylethyl)-1H-pyrazol-4-yl]-7H-pyrrolo[2,3-d]pyrimidine]			20 to 50 nM	> 100 nM
CC(CN1CCN(S(=O)(=O)c2ccccc2C#N)CC1)n1cc(-c2ncnc3[nH]ccc23)cn1 (stereo not drawn) [Example 94, 2-[(4-{2-[4-(7H-pyrrolo[2,3-d]pyrimidin-4-yl)-1H-pyrazol-1-yl]propyl}piperazin-1-yl)sulfonyl]benzonitrile]			20 to 50 nM	> 100 nM
CC(CN1CCN(C(=O)c2ccc(F)cc2F)CC1)n1cc(-c2ncnc3[nH]ccc23)cn1 (stereo not drawn) [Example 95, 4-(1-{2-[4-(2,4-difluorobenzoyl)piperazin-1-yl]-1-methylethyl}-1H-pyrazol-4-yl)-7H-pyrrolo[2,3-d]pyrimidine bis(trifluoroacetate)]			20 to 50 nM	> 100 nM
